The subject of data set [1] is MV4-11. Kind of data set: Antiproliferative activity against human MV4-11 cells assessed as growth inhibition at 0.05 uM measured after 72 hrs in presence of 0.5 uM of vorinostat by CellTiterGlo assay. The format is functional. To be noted: read-out: GI. In general terms: In ATP-based viability assays light output follows the ATP content of the culture.
Data set [2] has as its system MV4-11. Kind of data set: Antiproliferative activity against human MV4-11 cells assessed as growth inhibition at 0.2 uM measured after 72 hrs in presence of 1 uM of vorinostat by CellTiterGlo assay. The class given is functional. As to conditions: read-out: GI.
Data set [3] concerns MV4-11. Kind of data set: Antiproliferative activity against human MV4-11 cells assessed as growth inhibition at 0.05 uM measured after 72 hrs by CellTiterGlo assay. The class given is functional. To be noted: read-out: GI.
Data set [4] relates to MV4-11. In words: Antiproliferative activity against human MV4-11 cells assessed as growth inhibition at 0.4 uM measured after 72 hrs in presence of 0.2 uM of vorinostat by CellTiterGlo assay. The class given is functional. To be noted: read-out: GI.
In data set [5] the test system is MV4-11. In words: Antiproliferative activity against human MV4-11 cells assessed as growth inhibition at 0.1 uM measured after 72 hrs in presence of 0.5 uM of vorinostat by CellTiterGlo assay. To be noted: read-out: GI. The class given is functional.
The subject of data set [6] is MV4-11. In words: Induction of apoptosis in human MV4-11 cells assessed as viable cells at 200 nM incubated for 72 hrs in presence of vorinostat by Annexin V/PI staining based flow cytometry analysis (reference value: 96.68%). To be noted: read-out: Activity. The format is functional. (In general: A flow cytometer gives signals particle by particle.)
The test system of data set [7] is MV4-11. In words: Antiproliferative activity against human MV4-11 cells assessed as growth inhibition at 0.5 uM measured after 72 hrs in presence of 0.1 uM of vorinostat by CellTiterGlo assay. The format is functional. To be noted: read-out: GI.
Data set [8] concerns MV4-11. In words: Induction of apoptosis in human MV4-11 cells assessed as early apoptotic cells at 600 nM incubated for 72 hrs in presence of vorinostat by Annexin V/PI staining based flow cytometry analysis (reference value: 0.76 %). The format is functional.
Data set [9] relates to MV4-11. Kind of data set: Antiproliferative activity against human MV4-11 cells assessed as growth inhibition at 0.2 uM measured after 72 hrs in presence of 0.1 uM of vorinostat by CellTiterGlo assay. To be noted: read-out: GI. The class given is functional.
For data set [10], the system named is MV4-11. In words: Induction of apoptosis in human MV4-11 cells assessed as viable cells at 200 nM incubated for 72 hrs by Annexin V/PI staining based flow cytometry analysis (reference value: 96.68%). The format is functional. As to conditions: read-out: Activity.
Data set [11] relates to MV4-11. Kind of data set: Antiproliferative activity against human MV4-11 cells assessed as growth inhibition at 0.5 uM measured after 72 hrs in presence of 1 uM of vorinostat by CellTiterGlo assay. The class given is functional. To be noted: read-out: GI.
The subject of data set [12] is MV4-11. In words: Antiproliferative activity against human MV4-11 cells assessed as growth inhibition at 2 uM measured after 72 hrs in presence of 0.05 uM of vorinostat by CellTiterGlo assay. The format is functional. To be noted: read-out: GI.
Data set [13] has as its system MV4-11. In words: Induction of apoptosis in human MV4-11 cells assessed as late apoptotic cells at 600 nM incubated for 72 hrs in presence of vorinostat by Annexin V/PI staining based flow cytometry analysis (reference value: 6.42 %). The class given is functional.
For data set [14], the system named is MV4-11. Kind of data set: Induction of apoptosis in human MV4-11 cells assessed as early apoptotic cells at 200 nM incubated for 72 hrs in presence of vorinostat by Annexin V/PI staining based flow cytometry analysis (reference value: 0.76 %). The class given is functional.
For data set [15], the system named is MV4-11. In words: Induction of apoptosis in human MV4-11 cells assessed as viable cells at 600 nM incubated for 72 hrs in presence of vorinostat by Annexin V/PI staining based flow cytometry analysis (reference value: 96.68%). The class given is functional. As to conditions: read-out: Activity.
For data set [16], the system named is MV4-11. In words: Antiproliferative activity against human MV4-11 cells assessed as growth inhibition at 0.05 uM measured after 72 hrs in presence of 1 uM of vorinostat by CellTiterGlo assay. The format is functional. As to conditions: read-out: GI.
For data set [17], the system named is MV4-11. Kind of data set: Antiproliferative activity against human MV4-11 cells assessed as growth inhibition at 0.5 uM measured after 72 hrs in presence of 0.05 uM of vorinostat by CellTiterGlo assay. The format is functional. To be noted: read-out: GI.
Data set [18] deals with MV4-11. Kind of data set: Antiproliferative activity against human MV4-11 cells assessed as growth inhibition at 2 uM measured after 72 hrs in presence of 1 uM of vorinostat by CellTiterGlo assay. The format is functional. To be noted: read-out: GI.
The test system of data set [19] is MV4-11. In words: Antiproliferative activity against human MV4-11 cells assessed as growth inhibition at 1 uM measured after 72 hrs in presence of 1 uM of vorinostat by CellTiterGlo assay. The format is functional. As to conditions: read-out: GI.
The test system of data set [20] is MV4-11. In words: Antiproliferative activity against human MV4-11 cells assessed as growth inhibition at 1 uM measured after 72 hrs in presence of 0.4 uM of vorinostat by CellTiterGlo assay. The class given is functional. To be noted: read-out: GI.
Data set [21] in a line: Toxicity in mouse implanted in human MV4-11 cells assessed as liver damage at 10 to 30 mg/kg, ip administered daily for 17 days by H and E staining based analysis. The format is organism-based. As to conditions: in vivo, 408 h, dose 10-30 mg/kg, time 17 day.
Data set [22] concerns MV4-11. Kind of data set: Induction of apoptosis in human MV4-11 cells assessed as viable cells at 100 nmol/L incubated for 72 hrs by Annexin V/PI staining based flow cytometry analysis (reference value: 90.23%). The format is functional. As to conditions: read-out: Activity.
The target of another data set is Histone deacetylase 2 (Homo sapiens, UniProt Q92769). Kind of data set: Inhibition of HDAC2 (unknown origin) by fluorescence based assay.
Histone deacetylase 2, sequence (Q92769 whole entry): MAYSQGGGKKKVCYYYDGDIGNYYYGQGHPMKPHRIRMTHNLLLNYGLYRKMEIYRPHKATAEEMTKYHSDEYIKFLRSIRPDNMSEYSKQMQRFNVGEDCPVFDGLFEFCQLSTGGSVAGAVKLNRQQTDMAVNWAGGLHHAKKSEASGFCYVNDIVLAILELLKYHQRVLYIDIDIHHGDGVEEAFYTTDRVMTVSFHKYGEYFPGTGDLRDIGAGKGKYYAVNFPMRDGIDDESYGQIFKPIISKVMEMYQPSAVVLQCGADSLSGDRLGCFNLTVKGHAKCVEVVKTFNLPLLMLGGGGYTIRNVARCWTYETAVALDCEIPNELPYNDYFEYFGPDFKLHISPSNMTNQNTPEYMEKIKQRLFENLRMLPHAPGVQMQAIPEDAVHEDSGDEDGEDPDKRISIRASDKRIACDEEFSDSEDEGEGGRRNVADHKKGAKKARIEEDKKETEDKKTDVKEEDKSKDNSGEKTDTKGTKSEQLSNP
Data set [23] concerns the target Histone-lysine N-methyltransferase 2A/WDR5 (Homo sapiens, UniProt P61964). In words: Inhibition of MLL1/WDR5 (unknown origin) protein-protein interaction incubated for 2 hrs by FP analysis. The format is protein assay.
A short description of data set [24]: Toxicity in mouse implanted in human MV4-11 cells assessed as animal death at 10 to 30 mg/kg, ip administered daily for 17 days. The class given is organism-based. To be noted: in vivo, 408 h, dose 10-30 mg/kg, time 17 day.
The subject of data set [25] is MV4-11. Kind of data set: Induction of apoptosis in human MV4-11 cells assessed as late apoptotic cells at 50 nmol/L incubated for 72 hrs by Annexin V/PI staining based flow cytometry analysis (reference value: 5.14%). The format is functional.
Data set [26] in a line: Toxicity in mouse implanted in human MV4-11 cells assessed as heart damage at 10 to 30 mg/kg, ip administered daily for 17 days by H and E staining based analysis. The format is organism-based. As to conditions: in vivo, 408 h, dose 10-30 mg/kg, time 17 day.
For the next data set, the target named is T1, Histone deacetylase 8 (Homo sapiens, UniProt Q9BY41).
T1 sequence (Q9BY41 whole entry): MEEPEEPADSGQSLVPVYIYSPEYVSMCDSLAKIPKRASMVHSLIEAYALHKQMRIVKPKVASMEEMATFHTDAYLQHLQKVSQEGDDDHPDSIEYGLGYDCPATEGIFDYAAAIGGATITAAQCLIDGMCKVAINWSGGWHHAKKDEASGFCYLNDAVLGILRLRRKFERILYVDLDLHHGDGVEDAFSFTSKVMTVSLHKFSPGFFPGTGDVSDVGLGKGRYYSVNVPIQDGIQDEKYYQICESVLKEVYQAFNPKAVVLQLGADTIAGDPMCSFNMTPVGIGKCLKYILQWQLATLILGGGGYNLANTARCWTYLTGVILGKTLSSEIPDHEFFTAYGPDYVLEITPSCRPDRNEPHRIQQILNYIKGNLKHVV
Kind of data set: Inhibition of HDAC8 (unknown origin) by fluorescence based assay.

A short description of data set [27]: Toxicity in mouse implanted in human MV4-11 cells assessed as body weight loss at 10 to 30 mg/kg, ip administered daily for 17 days. As to conditions: in vivo, 408 h, dose 10-30 mg/kg, time 17 day. The format is organism-based.
Another data set deals with Histone deacetylase 3 (Homo sapiens, UniProt O15379). In words: Inhibition of HDAC3 (unknown origin) by fluorescence based assay.
Histone deacetylase 3, sequence (O15379 whole entry): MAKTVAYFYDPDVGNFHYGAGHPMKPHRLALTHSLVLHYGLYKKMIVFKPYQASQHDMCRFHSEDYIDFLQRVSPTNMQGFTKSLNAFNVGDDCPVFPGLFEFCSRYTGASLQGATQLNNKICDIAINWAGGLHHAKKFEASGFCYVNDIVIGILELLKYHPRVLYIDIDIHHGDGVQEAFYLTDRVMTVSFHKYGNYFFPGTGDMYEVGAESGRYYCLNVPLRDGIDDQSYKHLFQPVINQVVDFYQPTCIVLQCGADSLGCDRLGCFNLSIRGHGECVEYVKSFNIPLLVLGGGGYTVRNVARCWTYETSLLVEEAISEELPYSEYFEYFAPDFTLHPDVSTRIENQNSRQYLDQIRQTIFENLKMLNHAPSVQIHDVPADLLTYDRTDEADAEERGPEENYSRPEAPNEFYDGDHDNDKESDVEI
Data set [28] can be described thus: Toxicity in mouse implanted in human MV4-11 cells assessed as lung damage at 10 to 30 mg/kg, ip administered daily for 17 days by H and E staining based analysis. The class given is organism-based. As to conditions: in vivo, 408 h, dose 10-30 mg/kg, time 17 day.

This note sets out measurements from ChEMBL document CHEMBL6096706, “Discovery of WDR5-MLL1 and HDAC Dual-Target Inhibitors for the Treatment of Acute Myeloid Leukemia” (J Med Chem, 2025).

SMILES strings stand for the structures.

For the molecule `Cc1c(F)c(N)cc(C(=O)Nc2cc(-c3ccc(C(=O)N4CCOCC4)cc3)ccc2N2CCN(C)CC2)c1Cl`, the inhibition of growth at 0.05 µM amounted to 73.2% with MV4-11 [1], 17.5% with MV4-11 [3] and 86.7% with MV4-11 [16]. Moreover, the inhibition of growth at 0.2 µM stood at 88.2% with MV4-11 [2] and 45% with MV4-11 [9]. Moreover, in the data set on MV4-11 [4], the inhibition of growth at 0.4 µM was determined as 59.3%. Further, in the data set on MV4-11 [5], the inhibition of growth at 0.1 µM came out at 73.6%. Besides, the values for the viability at 0.2 µM in the data set on MV4-11 [6] and with MV4-11 [10] were 57% and 90.3%, respectively. For the same molecule, the inhibition of growth at 0.5 µM is 51.7% with MV4-11 [7], 91.1% with MV4-11 [11] and 50.1% with MV4-11 [17]. In addition, the Activity was 69.5% in the data set with MV4-11 [8], 19.27% with MV4-11 [13] and 33.87% with MV4-11 [14]. Further, the inhibition of growth at 2 µM turned out to be 55.9% in the data set with MV4-11 [12] and 95.6% with MV4-11 [18]. Further, in the data set on MV4-11 [15], the viability at 0.6 µM was 9.67%. In addition, the inhibition of growth at 1 µM was found to be 94.9% in the data set on MV4-11 [19] and 68.7% in the data set with MV4-11 [20].

With `Cc1c(F)c(N)cc(C(=O)Nc2cc(-c3ccc(C(=O)NCc4ccc(/C=C/C(=O)NO)cc4)cc3)ccc2N2CCN(C)CC2)c1Cl`, the Activity entry in data set [21] is reported as “Non-toxic”; in data set [24], “Non-toxic”; in the data set with MV4-11 [25], 10.86%; in [26], “Non-toxic”; in data set [27] it was “Non-toxic”; in [28], “Non-toxic”. Also, the viability at 0.1 µM in the data set with MV4-11 [22] is 71.5%. Also, the IC50 – broadly, the concentration that inhibits the measured activity by half – worked out at 696 nM at Histone deacetylase 2, 42 nM in data set [23], 5300 nM against Histone deacetylase 8 and 296 nM against Histone deacetylase 3.
